Patent US20230174486A1, “NON-LYSOSOMAL GLUCOSYLCERAMIDASE INHIBITORS AND USES THEREOF” (ALECTOS THERAPEUTICS lNC., priority 2020, published 2023)

Target: T1, human GBA2 (Homo sapiens, UniProt Q9HCG7)
T1 construct: cellular homogenate
T1 sequence (Q9HCG7 1-927): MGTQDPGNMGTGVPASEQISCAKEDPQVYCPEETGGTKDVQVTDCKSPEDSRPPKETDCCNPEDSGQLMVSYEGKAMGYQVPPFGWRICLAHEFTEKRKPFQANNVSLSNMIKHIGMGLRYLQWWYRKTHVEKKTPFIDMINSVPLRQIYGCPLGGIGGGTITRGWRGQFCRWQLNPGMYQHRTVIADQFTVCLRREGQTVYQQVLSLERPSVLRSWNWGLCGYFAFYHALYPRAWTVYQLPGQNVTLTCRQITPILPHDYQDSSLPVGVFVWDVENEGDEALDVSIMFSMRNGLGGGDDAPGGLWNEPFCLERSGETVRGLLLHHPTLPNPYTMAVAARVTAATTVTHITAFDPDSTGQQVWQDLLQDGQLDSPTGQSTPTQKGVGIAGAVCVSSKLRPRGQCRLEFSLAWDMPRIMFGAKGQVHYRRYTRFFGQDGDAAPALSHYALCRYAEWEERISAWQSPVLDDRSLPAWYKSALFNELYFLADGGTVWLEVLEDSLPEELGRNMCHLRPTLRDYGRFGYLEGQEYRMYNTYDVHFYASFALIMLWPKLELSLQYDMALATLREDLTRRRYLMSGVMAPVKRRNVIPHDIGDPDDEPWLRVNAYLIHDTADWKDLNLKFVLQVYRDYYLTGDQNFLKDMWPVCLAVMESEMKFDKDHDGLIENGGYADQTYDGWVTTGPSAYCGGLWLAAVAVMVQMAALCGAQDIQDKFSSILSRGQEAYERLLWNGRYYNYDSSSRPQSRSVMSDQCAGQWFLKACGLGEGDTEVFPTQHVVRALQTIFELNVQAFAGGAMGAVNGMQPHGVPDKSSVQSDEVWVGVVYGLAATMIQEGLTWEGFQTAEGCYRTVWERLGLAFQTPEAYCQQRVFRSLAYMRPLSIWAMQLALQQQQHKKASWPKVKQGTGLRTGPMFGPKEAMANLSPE
Assay: Inhibition of GBA2 in cell lysate (4-methylumbelliferone-β-D glucopyranoside substrate)
Type: biochemical
Conditions: homogenate of HEK293T cells stably overexpressing human GBA2, pH 5.5, 37° C., GCase inhibitor present
Experimental: Stable GBA2-expressing HEK293T cells were generated as follows. The PCR-amplified human GBA2 (GBA2 nucleotide accession number BC011363) using the following primers: Sense 5’---CGCAAATGGGCGGTAGGCGTG---3’ and antisense 5’---TAGTCAGCCATGGGGCGGAGA ---3’) was cloned into pLenti-GIII-CMV by ABM Inc. The correctness of the construct was verified by sequencing. Lentivirus particles containing GBA2 in the pLenti-GIII-CMV plasmid were prepared using a third Generation Virus Packaging Mix (ABM cat# LV053-G074) in HEK293T cells and supplied as a virus particle suspension. The virus suspension was used for infection of HEK293T cells. Cell populations stably expressing human GBA2 were selected using puromycin for several weeks as determined by activity assays and western blot.
Various concentrations of test compounds were prepared in DMSO and then diluted into buffer consisting of 100 mM citric acid, 200 mM disodium phosphate with 1% v/v C10E6, pH 5.5. Cellular homogenates (0.25 mg/mL) of the stable HEK293T-overexpressing GBA2 cell line were preincubated for 10 min on ice with an inhibitor of GCase (20 µM (6R,7R,8S)-8-ethyl-4-azaspiro[2.5]octane-6,7-diol). The reaction solution consisted of 20 µL of 750 µM 4-methylumbelliferone-β-D glucopyranoside in 5% DMSO in the same buffer, 20 µL of GBA2-cellular homogenate pre-treated with (6R,7R,8S)-8-ethyl-4-azaspiro[2.5]octane-6,7-diol and 20 µL of various concentrations of test compound in 10% DMSO in the same buffer. The final concentrations in the reaction were 0.083 mg/mL GBA2-cellular homogenate, 250 µM 4-methylumbelliferone-β-D glucopyranoside, and various concentrations of inhibitor. The inhibitor and GBA2-cellular homogenate were preincubated together for 5 min at 37° C. The reaction was initiated by addition of substrate and allowed to proceed for 20 min at 37° C. to assess GBA2 activity. Reactions were stopped by the addition of an equal volume (60 µL) of 0.5 M NaOH, 0.3 M glycine, pH 10.5. Fluorescence was measured on a Biotek Synergy H4 plate reader at wavelengths of 365 nm for excitation and 450 nm for emission. Incubations without added enzyme or added inhibitors were used to define no enzyme activity and maximal enzyme activity, respectively. IC50 values were determined by fitting the data to a log[inhibitor concentration] versus response curve using GraphPad Prism. IC50 values were calculated as the concentration of inhibitor required to inhibit GBA2 activity by 50%.

Row | GBA2 IC50 | Structure (SMILES)
1 | ∗∗∗ | OC[C@@H]1[C@@H](O)[C@H](O)[C@@H](O)CN1CCc1ccsc1 [Example 11, (2R,3R,4R,5S)-2-(hydroxymethyl)-1-(2-(thiophen-3-yl)ethyl)piperidine-3,4,5-triol]
2 | ∗∗∗ | OC[C@@H]1[C@@H](O)[C@H](O)[C@@H](O)CN1CCc1ccccc1F [Example 1, (2R,3R,4R,5S)-1-(2-fluorophenethyl)-2-(hydroxymethyl)piperidine-3,4,5-triol]
3 | ∗∗∗ | OC[C@@H]1[C@@H](O)[C@H](O)[C@@H](O)CN1CCc1cccs1 [Example 10, (2R,3R,4R,5S)-2-(hydroxymethyl)-1-(2-(thiophen-2-yl)ethyl)piperidine-3,4,5-triol]
4 | ∗∗∗ | OC[C@@H]1[C@@H](O)[C@H](O)[C@@H](O)CN1CCc1ccc(C(F)(F)F)cc1 [Example 6, (2R,3R,4R,5S)-2-(hydroxymethyl)-1-(4-(trifluoromethyl)phenethyl)piperidine-3,4,5-triol]
5 | ∗∗∗ | OC[C@@H]1[C@@H](O)[C@H](O)[C@@H](O)CN1CCc1ccc(F)cc1 [Example 3, (2R,3R,4R,5S)-1-(4-fluorophenethyl)-2-(hydroxymethyl)piperidine-3,4,5-triol]
6 | ∗∗∗ | OC[C@H]1[C@@H](O)[C@H](O)[C@@H](O)CN1CCc1cccc(Cl)c1F [Example 19, (2S,3R,4R,5S)-1-(3-chloro-2-fluorophenethyl)-2-(hydroxymethyl)piperidine-3,4,5-triol]
7 | ∗∗∗ | OC[C@H]1[C@@H](O)[C@H](O)[C@@H](O)CN1CCCC1CCCCC1 [Example 17, (2S,3R,4R,5S)-1-(3-cyclohexylpropyl)-2-(hydroxymethyl)piperidine-3,4,5-triol]
8 | ∗∗ | OC[C@@H]1[C@@H](O)[C@H](O)[C@@H](O)CN1CCc1ccccn1 [Example 9, (2R,3R,4R,5S)-2-(hydroxymethyl)-1-(2-(pyridin-2-yl)ethyl)piperidine-3,4,5-triol]
9 | ∗∗∗ | OC[C@H]1[C@@H](O)[C@H](O)[C@@H](O)CN1C[C@H]1CCN(c2nc(C(F)(F)F)cs2)C1 [Example 26, (2S,3R,4R,5S)-2-(hydroxymethyl)-1—(((R)—1-(4-(trifluoromethyl)thiazol-2-yl)pyrrolidin-3-yl)methyl)piperidine-3,4,5-triol]
10 | ∗∗∗ | C[C@@H](CN1C[C@H](O)[C@@H](O)[C@H](O)[C@H]1CO)c1ccccc1 (single isomer, unassigned) [Example 7]
11 | ∗∗∗ | OC[C@@H]1[C@@H](O)[C@H](O)[C@@H](O)CN1CCc1cccc(C(F)(F)F)c1 [Example 5, (2R,3R,4R,5S)-2-(hydroxymethyl)-1-(3-(trifluoromethyl)phenethyl)piperidine-3,4,5-triol]
12 | ∗∗∗ | OC[C@H]1[C@@H](O)[C@H](O)[C@@H](O)CN1C[C@H]1CCCN(c2nc(C(F)(F)F)cs2)C1 [Example 30, (2S,3R,4R,5S)-2-(hydroxymethyl)-1—(((R)—1-(4-(trifluoromethyl)thiazol-2-yl)piperidin-3-yl)methyl)piperidine-3,4,5-triol]
13 | ∗∗∗ | OC[C@H]1[C@@H](O)[C@H](O)[C@@H](O)CN1CCc1ccccc1F [Example 18, (2S,3R,4R,5S)-1-(2-fluorophenethyl)-2-(hydroxymethyl)piperidine-3,4,5-triol]
14 | ∗∗∗ | OC[C@@H]1[C@@H](O)[C@H](O)[C@@H](O)CN1CCc1cccc(F)c1 [Example 2, (2R,3R,4R,5S)-1-(3-fluorophenethyl)-2-(hydroxymethyl)piperidine-3,4,5-triol]
